Measured values: patent US9290451B2 (Hoffmann-La Roche Inc., priority 2011, dated 2016)
Read-outs that look alike come from different tables or passages of the source.

Legend:
human CB2 receptors = human CB2 receptors (Homo sapiens (Human), UniProt P34972); experiment: cAMP assay, CHO cells expressing human CB2 receptors; type: cell-based
Method in brief: (§1)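 Seed CHO cells 17–24 h ahead; replace medium with Krebs Ringer bicarbonate containing 1 mM IBMX for 30 min at 30 °C; add compounds for 30 min at 30 °C; lyse, add TR-FRET cAMP reagents for 2 h at room temperature; read and convert to cAMP via standard curve; fit EC50.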

human CB1 receptors = human CB1 receptors (Homo sapiens (Human), UniProt P21554); experiment: cAMP assay, CHO cells expressing human CB1 receptors; type: cell-based
Chain of human CB1 receptors (P21554 whole entry): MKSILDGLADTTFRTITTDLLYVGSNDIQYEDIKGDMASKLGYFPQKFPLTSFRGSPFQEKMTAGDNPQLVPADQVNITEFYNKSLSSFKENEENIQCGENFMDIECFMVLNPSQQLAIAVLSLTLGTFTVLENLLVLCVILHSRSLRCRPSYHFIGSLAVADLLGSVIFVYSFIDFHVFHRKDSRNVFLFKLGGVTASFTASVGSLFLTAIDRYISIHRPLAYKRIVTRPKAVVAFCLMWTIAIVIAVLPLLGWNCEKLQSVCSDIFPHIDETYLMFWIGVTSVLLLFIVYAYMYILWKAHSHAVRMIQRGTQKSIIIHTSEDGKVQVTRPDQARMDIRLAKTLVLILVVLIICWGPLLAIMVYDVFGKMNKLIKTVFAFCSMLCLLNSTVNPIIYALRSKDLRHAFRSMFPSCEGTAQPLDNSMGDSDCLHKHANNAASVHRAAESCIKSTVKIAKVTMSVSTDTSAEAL
Method in brief: as §1

[1] = CHO cells expressing human CB2, cAMP, read-out: human CB2 EC50
[2] = CHO cells expressing human CB1, cAMP, read-out: human CB1 EC50

Chain of human CB2 receptors (P34972 whole entry): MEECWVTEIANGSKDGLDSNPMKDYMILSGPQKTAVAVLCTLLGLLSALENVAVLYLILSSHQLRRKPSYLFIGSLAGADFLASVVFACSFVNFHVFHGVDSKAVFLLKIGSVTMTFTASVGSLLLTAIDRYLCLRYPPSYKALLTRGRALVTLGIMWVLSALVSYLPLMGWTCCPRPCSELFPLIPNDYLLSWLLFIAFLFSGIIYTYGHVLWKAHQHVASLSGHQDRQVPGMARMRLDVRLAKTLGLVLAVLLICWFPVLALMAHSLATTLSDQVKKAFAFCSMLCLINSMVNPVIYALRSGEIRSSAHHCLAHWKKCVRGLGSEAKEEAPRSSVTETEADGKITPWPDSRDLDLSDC

| SMILES | EC50 (human CB2 receptors; [1]) | EC50 (human CB1 receptors; [2]) | EC50 (human CB2 receptors) | EC50 (human CB1 receptors) |
| --- | --- | --- | --- | --- |
| CNC(=O)[C@H](CC(C)(C)C)NC(=O)c1ccc(C2CC2)c(OCC(F)(F)C(F)(F)F)n1 [Example 299, 5-Cyclopropyl-6-(2,2,3,3,3-pentafluoro-propoxy)-pyridine-2-carboxylic acid ((S)-3,3-dimethyl-1-methylcarbamoyl-butyl)-amide] | 27.6 nM | 603 nM | – | – |
| CCC(CC)(NC(=O)c1ccc(N2CC(F)(F)C2)c(OCC2CC2)n1)C(=O)O [Example 207, 2-(6-(Cyclopropylmethoxy)-5-(3,3-difluoroazetidin-1-yl)picolinamido)-2-ethylbutanoic acid] | 14.4 nM | > 10000 nM | – | – |
| Cc1nc(C(CC(C)C)NC(=O)c2ccc(N3CC(F)(F)C3)c(OCC3CC3)n2)no1 (stereo not drawn) [Example 272, 6-Cyclopropylmethoxy-5-(3,3-difluoro-azetidin-1-yl)-pyridine-2-carboxylic acid [3-methyl-1-(5-methyl-[1,2,4]oxadiazol-3-yl)-butyl]-amide] | – | – | 4.3 nM | > 10000 nM |
| CNC(=O)[C@@H](NC(=O)c1ccc(N2CC(F)(F)C2)c(OCC2CC2)n1)C(C)(C)C [Example 208, (S)-6-(Cyclopropylmethoxy)-5-(3,3-difluoroazetidin-1-yl)-N-(3,3-dimethyl-1-(methylamino)-1-oxobutan-2-yl)picolinamide] | 8.9 nM | > 10000 nM | – | – |
| CC(C)CC(C#N)NC(=O)c1ccc(N2CC(F)(F)C2)c(OCC2CC2)n1 (stereo not drawn) [Example 271, 6-Cyclopropylmethoxy-5-(3,3-difluoro-azetidin-1-yl)-pyridine-2-carboxylic acid (1-cyano-3-methyl-butyl)-amide] | 7.9 nM | > 10000 nM | – | – |
| CCC(CC)(CO)NC(=O)c1cccc(-c2cccc(Cl)c2)n1 [Example 29, 6-(3-Chloro-phenyl)-pyridine-2-carboxylic acid (1-ethyl-1-hydroxymethyl-propyl)-amide] | 324 nM | > 10000 nM | – | – |
| O=C(N[C@@H](CC1CC1)c1nccs1)c1cccc(-c2cccc(Cl)c2)n1 [Example 60, 6-(3-Chloro-phenyl)-pyridine-2-carboxylic acid ((S)-2-cyclopropyl-1-thiazol-2-yl-ethyl)-amide] | 62.2 nM | > 10000 nM | – | – |
| CC(C)C[C@H](NC(=O)c1ccc(NC2CC2)c(OCC2CC2)n1)C(N)=O [Example 134, 5-Cyclopropylamino-6-cyclopropylmethoxy-pyridine-2-carboxylic acid ((S)-1-carbamoyl-3-methyl-butyl)-amide] | 5.1 nM | 151 nM | – | – |
| CC(C)(NC(=O)c1ccc(Cl)c(OCC2CC2)n1)c1ncon1 [Example 83, 5-Chloro-6-cyclopropylmethoxy-pyridine-2-carboxylic acid (1-methyl-1-[1,2,4]oxadiazol-3-yl-ethyl)-amide] | 347 nM | > 10000 nM | – | – |
| CC(C)(NC(=O)c1ccc(C2CC2)c(OCC2CC2)n1)c1ccccn1 [Example 285, 5-Cyclopropyl-6-cyclopropylmethoxy-pyridine-2-carboxylic acid (1-methyl-1-pyridin-2-yl-ethyl)-amide] | 31.6 nM | 703 nM | – | – |
| CNC(=O)[C@H](CC(C)(C)C)NC(=O)c1ccc(C2CC2)c(OCC2CCCO2)n1 (stereo partly drawn) [Example 185, 5-Cyclopropyl-N-((S)-4,4-dimethyl-1-(methylamino)-1-oxopentan-2-yl)-6-((tetrahydrofuran-2-yl)methoxy)picolinamide] | 7.5 nM | > 10000 nM | – | – |
| O=C(NC1CCS(=O)(=O)C1)c1ccc(N2CC(F)(F)C2)c(OCC2CC2)n1 (stereo not drawn) [Example 292, 6-Cyclopropylmethoxy-5-(3,3-difluoro-azetidin-1-yl)-pyridine-2-carboxylic acid (1,1-dioxo-tetrahydro-1λ^6-thiophen-3-yl)-amide] | 874 nM | > 10000 nM | – | – |
| Cc1nc([C@H](CC2CC2)NC(=O)c2cccc(-c3cccc(Cl)c3)n2)no1 [Example 38] | 99.7 nM | > 10000 nM | – | – |
| CC(C)(O)[C@H](CC1CC1)NC(=O)c1ccc(N2CC(F)(F)C2)c(OCC2CC2)n1 [Example 135, 6-Cyclopropylmethoxy-5-(3,3-difluoro-azetidin-1-yl)-pyridine-2-carboxylic acid ((S)-1-cyclopropylmethyl-2-hydroxy-2-methyl-propyl)-amide] | 38.2 nM | > 10000 nM | – | – |
| CC(C)(NC(=O)c1ccc(N2CCCC2)c(OCC2CC2)n1)C1=NCCO1 [Example 63, 6-Cyclopropylmethoxy-5-pyrrolidin-1-yl-pyridine-2-carboxylic acid [1-(4,5-dihydro-oxazol-2-yl)-1-methyl-ethyl]-amide] | 112 nM | > 10000 nM | – | – |
| CCC(CC)(NC(=O)c1ccc(N(CC(F)(F)F)CC(F)(F)F)c(OCC2CC2)n1)C(=O)OC [Example 220, 2-({5-[Bis-(2,2,2-trifluoro-ethyl)-amino]-6-cyclopropylmethoxy-pyridine-2-carbonyl}-amino)-2-ethyl-butyric acid methyl ester] | 1.6 nM | 129 nM | – | – |
| CCC(CC)(NC(=O)c1ccc(OC)c(-c2cccc(Cl)c2)n1)C(=O)NC [Example 81, 6-(3-Chloro-phenyl)-5-methoxy-pyridine-2-carboxylic acid (1-ethyl-1-methylcarbamoyl-propyl)-amide] | 417 nM | > 10000 nM | – | – |
| CCC(CC)(NC(=O)c1ccc(C(F)(F)F)c(OCC2CCOCC2)n1)C(=O)OC [Example 238, 2-Ethyl-2-{[6-(tetrahydro-pyran-4-ylmethoxy)-5-trifluoromethyl-pyridine-2-carbonyl]-amino}-butyric acid methyl ester] | 0.4 nM | 146 nM | – | – |
| CNC(=O)[C@@H](NC(=O)c1cccc(-c2cccc(F)c2)n1)C(C)(C)C [Example 213, (S)-N-(3,3-Dimethyl-1-(methylamino)-1-oxobutan-2-yl)-6-(3-fluorophenyl)picolinamide] | 12.8 nM | 361 nM | – | – |
| CC(C)(NC(=O)c1ccc(N2CC(F)(F)C2)c(OCC2CC2)n1)c1nccs1 [Example 69, 6-Cyclopropylmethoxy-5-(3,3-difluoro-azetidin-1-yl)-pyridine-2-carboxylic acid (1-methyl-1-thiazol-2-yl-ethyl)-amide] | 6 nM | 380 nM | – | – |
| CCC(CC)(NC(=O)c1ccc(Cl)c(-c2cccc(Cl)c2)n1)C(=O)NC [Example 91, 5-Chloro-6-(3-chloro-phenyl)-pyridine-2-carboxylic acid (1-ethyl-1-methylcarbamoyl-propyl)-amide] | 632 nM | > 10000 nM | – | – |
| Cc1nc([C@H](CC2CC2)NC(=O)c2ccc(C)c(OCC3CC3)n2)no1 [Example 57, 6-Cyclopropylmethoxy-5-methyl-pyridine-2-carboxylic acid [(S)-2-cyclopropyl-1-(5-methyl-[1,2,4]oxadiazol-3-yl)-ethyl]-amide] | 319 nM | > 10000 nM | – | – |
| CC(C)C[C@H](NC(=O)c1ccc(C2CC2)c(OC(C)C(F)(F)F)n1)C(N)=O (stereo partly drawn) [Example 372, 5-Cyclopropyl-6-(2,2,2-trifluoro-1-methyl-ethoxy)-pyridine-2-carboxylic acid ((S)-1-carbamoyl-3-methyl-butyl)-amide] | – | – | 53.4 nM | > 10000 nM |
| CCC(CC)(NC(=O)c1ccc(C(F)(F)F)c(OCC2CCOCC2)n1)C(=O)NC [Example 253, 6-(Tetrahydro-pyran-4-ylmethoxy)-5-trifluoromethyl-pyridine-2-carboxylic acid (1-ethyl-1-methylcarbamoyl-propyl)-amide] | 14.3 nM | > 10000 nM | – | – |
